Series [1] is described as follows: Cytotoxicity against human L02 cells assessed as inhibition of cell proliferation incubated for 48 hrs by MTT assay. It counts as toxicity, cell-based.
A further series concerns BGC-823. Description: Antiproliferative activity against human BGC-823 cells assessed as inhibition of cell proliferation incubated for 48 hrs by MTT assay. Type of series: functional, cell-based. The settings on record: BGC-823, 48 h. Background: Tetrazolium assays rely on reduction of a dye to a coloured formazan, in cell work by metabolically active cells.
Series [2] in a line: Cytotoxicity against human GES1 cells assessed as inhibition of cell proliferation incubated for 48 hrs by MTT assay. Type of series: toxicity, cell-based.
In a further series the test system is MCF7. Description: Antiproliferative activity against human MCF7 cells assessed as inhibition of cell proliferation incubated for 48 hrs by MTT assay. Type of series: functional, cell-based. The settings on record: MCF7, 48 h.
Series [3] can be described thus: Cytotoxicity against human MCF-10A cells assessed as inhibition of cell proliferation incubated for 48 hrs by MTT assay. It counts as toxicity, cell-based.
The subject of the next series is HepG2. Description: Antiproliferative activity against human HepG2 cells assessed as inhibition of cell proliferation incubated for 48 hrs by MTT assay. It counts as functional, cell-based. The settings on record: HepG2, 48 h.

Molecules are shown by their SMILES. pIC50: −log10 of the molar value.

Drawing on ChEMBL document CHEMBL5576127, “New CDDO Arylboronate Ester Derivatives with High Selectivity and Low Toxicity” (J Med Chem, 2024), this text covers IC50 for eight molecules.

For orientation: IC50 means the concentration that gives 50% inhibition. In general, pIC50 refers to the IC50 on a negative log10 scale, so that one unit is a factor of ten. As for `CC1(C)CC[C@]2(C(=O)OCCOC(=O)c3ccc(OCc4ccc(B5OC(C)(C)C(C)(C)O5)cc4)cc3)CC[C@]3(C)[C@H](C(=O)C=C4[C@@]5(C)C=C(C#N)C(=O)C(C)(C)[C@@H]5CC[C@]43C)[C@@H]2C1`, the values for the IC50 at 48 h in series [1], in series [2] and in series [3] were 5 µM, 4.7 µM and 4 µM, respectively. The pIC50 was 5.42 with BGC-823, 5.54 with MCF7 and 5.44 in the series on HepG2.
In the case of `COc1cc(C(=O)OCCCCOC(=O)[C@]23CCC(C)(C)C[C@H]2[C@H]2C(=O)C=C4[C@@]5(C)C=C(C#N)C(=O)C(C)(C)[C@@H]5CC[C@@]4(C)[C@]2(C)CC3)cc(OC)c1OCc1ccc(B2OC(C)(C)C(C)(C)O2)cc1`, the IC50 at 48 h in series [1] worked out at 6.1 µM; in series [2], 4.2 µM; in series [3], 4 µM. Besides, the pIC50 in the series on BGC-823 is 5.46; in the series with MCF7, 5.46; in the series with HepG2, 5.27.
Consider `CC1(C)CC[C@]2(C(=O)OCCCOC(=O)Cc3ccc(OCc4ccc(B5OC(C)(C)C(C)(C)O5)cc4)cc3)CC[C@]3(C)[C@H](C(=O)C=C4[C@@]5(C)C=C(C#N)C(=O)C(C)(C)[C@@H]5CC[C@]43C)[C@@H]2C1`, for which the IC50 at 48 h turned out to be 4.1 µM in series [1], 2.2 µM in series [2] and 2.5 µM in series [3]. The figures for the pIC50 in the series on BGC-823, with MCF7 and with HepG2 were 5.80, 5.85 and 5.60, respectively.
With `COc1ccc(/C=C/CC(=O)OCCCOC(=O)[C@]23CCC(C)(C)C[C@H]2[C@H]2C(=O)C=C4[C@@]5(C)C=C(C#N)C(=O)C(C)(C)[C@@H]5CC[C@@]4(C)[C@]2(C)CC3)cc1OCc1ccc(B2OC(C)(C)C(C)(C)O2)cc1`, the IC50 at 48 h in series [1] was 5 µM; in series [2], 6.6 µM; in series [3], 4 µM. Moreover, the values for the pIC50 with BGC-823, in the series with MCF7 and in the series on HepG2 were 5.26, 5.46 and 5.44, respectively.
Turning to `CC1(C)CC[C@]2(C(=O)OCCCOC(=O)C/C=C/c3ccc(OCc4ccc(B5OC(C)(C)C(C)(C)O5)cc4)cc3)CC[C@]3(C)[C@H](C(=O)C=C4[C@@]5(C)C=C(C#N)C(=O)C(C)(C)[C@@H]5CC[C@]43C)[C@@H]2C1`, the IC50 at 48 h in series [1] was determined as 3.3 µM; in series [2], 6.9 µM; in series [3], 18.3 µM. The pIC50 with BGC-823 is 5.06; in the series on MCF7, 5.00; in the series on HepG2, 5.19.
On to `CC1(C)CC[C@]2(C(=O)OCCCCCCOC(=O)c3ccc(OCc4ccc(B5OC(C)(C)C(C)(C)O5)cc4)cc3)CC[C@]3(C)[C@H](C(=O)C=C4[C@@]5(C)C=C(C#N)C(=O)C(C)(C)[C@@H]5CC[C@]43C)[C@@H]2C1`, for which the IC50 at 48 h is 6.4 µM in series [1], 4.7 µM in series [2] and 3.3 µM in series [3]. For the same molecule, the pIC50 was 5.49 with BGC-823, 5.62 with MCF7 and 4.19 in the series with HepG2.
Consider `COc1cc(C(=O)OCCCCOC(=O)[C@]23CCC(C)(C)C[C@H]2[C@H]2C(=O)C=C4[C@@]5(C)C=C(C#N)C(=O)C(C)(C)[C@@H]5CC[C@@]4(C)[C@]2(C)CC3)ccc1OCc1ccc(B2OC(C)(C)C(C)(C)O2)cc1`, for which the IC50 at 48 h in series [1] was 15.6 µM; in series [2], 9.2 µM; in series [3] it was 12.4 µM. For the same molecule, the pIC50 was 5.08 in the series on BGC-823, 4.89 in the series with MCF7 and 4.81 in the series on HepG2.
Consider `COc1cc(/C=C/CC(=O)OCCCOC(=O)[C@]23CCC(C)(C)C[C@H]2[C@H]2C(=O)C=C4[C@@]5(C)C=C(C#N)C(=O)C(C)(C)[C@@H]5CC[C@@]4(C)[C@]2(C)CC3)ccc1OCc1ccc(B2OC(C)(C)C(C)(C)O2)cc1`, for which the IC50 at 48 h in series [1] was 5.6 µM; in series [2], 4.2 µM; in series [3] it was 2.4 µM. Also, the pIC50 was 5.64 with BGC-823, 4.54 in the series on MCF7 and 5.26 in the series with HepG2.
